Measured values taken from patent US7683079B2, “4-aminopiperidine derivatives” (Hoffmann-La Roche Inc., priority 2004, dated 2010).
pIC50: −log10 of the molar value.

Each compound was assayed against T1, human DPP-IV (Homo sapiens, UniProt P27487) (assay: DPP-IV activity assay (fluorometric/colorimetric), IC50 determination). Settings: natural human DPP-IV from human plasma pool or recombinant human DPP-IV; 37° C., pH 7.8; substrate 50 μM (fluorogenic) or 200 μM (colorimetric).
T1 construct: made in house; host or cells: Pichia pastoris
Format: biochemical
Protocol: Activity of DPP-IV inhibitors are tested with natural human DPP-IV derived from a human plasma pool or with recombinant human DPP-IV. […] In the calorimetric DPP-IV assay 5 to 10 μl human plasma and in the fluorometric assay 1.0 μl of human plasma in a total assay volume of 100 μl is used as an enzyme source. […] Human DPP-IV is expressed and purified from the culture medium using conventional column chromatography including size exclusion and anion and cation chromatography.
A 20 mM stock solution in 10% DMF/H2O is stored at −20° C. until use.
A 10 mM stock solution in 10% MeOH/H2O is stored at −20° C. until use.
Fluorescence is detected in a Perkin Elmer Luminescence Spectrometer LS 50B at an excitation wavelength of 400 nm and an emission wavelength of 505 nm continuously every 15 seconds for 10 to 30 minutes. Initial rate constants are calculated by best fit linear regression.
Initial rate constants are calculated by best fit linear regression.
DPP-IV activity assays are performed in 96 well plates at 37° C. in a total assay volume of 100 μl. The assay buffer consists of 50 mM Tris/HCl pH 7.8 containing 0.1 mg/ml BSA and 100 mM NaCl. […] Enzyme reactions are started with substrate application followed by immediate mixing.

T1 sequence (P27487 31-766): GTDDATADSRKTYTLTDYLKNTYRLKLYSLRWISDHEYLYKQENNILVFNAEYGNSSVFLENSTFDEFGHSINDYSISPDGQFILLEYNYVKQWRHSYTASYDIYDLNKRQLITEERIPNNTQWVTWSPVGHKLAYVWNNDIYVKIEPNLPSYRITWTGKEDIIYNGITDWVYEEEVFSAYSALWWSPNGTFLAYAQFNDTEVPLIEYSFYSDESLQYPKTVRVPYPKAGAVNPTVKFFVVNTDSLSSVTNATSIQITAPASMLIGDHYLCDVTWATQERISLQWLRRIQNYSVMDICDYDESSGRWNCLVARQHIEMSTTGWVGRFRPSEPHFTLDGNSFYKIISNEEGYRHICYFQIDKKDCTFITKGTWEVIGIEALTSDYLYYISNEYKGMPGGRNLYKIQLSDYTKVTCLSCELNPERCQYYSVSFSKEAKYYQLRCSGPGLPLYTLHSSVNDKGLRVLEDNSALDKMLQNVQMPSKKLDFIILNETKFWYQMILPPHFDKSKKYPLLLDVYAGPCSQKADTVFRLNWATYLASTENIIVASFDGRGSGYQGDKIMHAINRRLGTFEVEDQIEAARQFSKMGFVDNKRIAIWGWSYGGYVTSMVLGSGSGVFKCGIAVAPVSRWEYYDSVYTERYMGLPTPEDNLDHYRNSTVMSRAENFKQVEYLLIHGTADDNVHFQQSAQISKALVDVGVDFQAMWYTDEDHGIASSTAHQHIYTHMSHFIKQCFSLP

Row | Structure (SMILES) | pIC50
1 | COc1ccc(N2CC[C@@H](N)[C@@H](C(=O)N3CCSC3)C2)cc1OC (racemic) [Example 40, 3 [(3S,4R) and (3R,4S)-4-Amino-1-(3,4-dimethoxy-phenyl)-piperidine-3-yl]-thiazolidin-3-yl-methanone] | 6.09
2 | NC1CCN(CCc2ccccc2)CC1c1cccc(Cl)c1 (stereo not drawn) [Example 23, 3-(3-Chloro-phenyl)-1-phenethyl-piperidine-4-ylamine] | 6.80
3 | N[C@@H]1CCN(CCc2ccccn2)C[C@@H]1C(=O)N1CCSC1 [Example 36] | 6.54
